Active and inactive are the calls of the source. The rule behind the calls is not given here.
Tests used:
[1] = Half life in Sprague-Dawley rat at 1 mg/kg, iv by LC-MS/MS method; assay type: ADME, organism-based; conditions: in vivo
[2] = AUC (0 to t) in Sprague-Dawley rat at 1 mg/kg, iv by LC-MS/MS method; assay type: ADME, organism-based; conditions: in vivo
[3] = AUC (0 to infinity) in Sprague-Dawley rat at 1 mg/kg, iv by LC-MS/MS method; assay type: ADME, organism-based; set-up: dose 1 mg/kg, route intravenous, time infinity; conditions: in vivo
[4] = Clearance in Sprague-Dawley rat at 1 mg/kg, iv by LC-MS/MS method; assay type: ADME, organism-based; conditions: in vivo
[5] = Mean residence time (0 to infinity) in Sprague-Dawley rat at 1 mg/kg, iv by LC-MS/MS method; assay type: ADME, organism-based; conditions: in vivo
[6] = Volume of distribution at steady state in Sprague-Dawley rat at 1 mg/kg, iv by LC-MS/MS method; assay type: ADME, organism-based; conditions: in vivo, read-out: Vdss
[7] = Half life in Sprague-Dawley rat at 2 mg/kg, po by LC-MS/MS method; assay type: ADME, organism-based; conditions: in vivo
[8] = AUC (0 to t) in Sprague-Dawley rat at 2 mg/kg, po by LC-MS/MS method; assay type: ADME, organism-based; conditions: in vivo
[9] = AUC (0 to infinity) in Sprague-Dawley rat at 2 mg/kg, po by LC-MS/MS method; assay type: ADME, organism-based; set-up: dose 2 mg/kg, route oral, time infinity; conditions: in vivo
[10] = Cmax in Sprague-Dawley rat at 2 mg/kg, po by LC-MS/MS method; assay type: ADME, organism-based; set-up: dose 2 mg/kg, route oral; conditions: in vivo
[11] = Mean residence time (0 to infinity) in Sprague-Dawley rat at 2 mg/kg, po by LC-MS/MS method; assay type: ADME, organism-based; conditions: in vivo
[12] = Tmax in Sprague-Dawley rat at 2 mg/kg, po by LC-MS/MS method; assay type: ADME, organism-based; conditions: in vivo
[13] = Oral bioavailability in Sprague-Dawley rat at 2 mg/kg by LC-MS/MS method; assay type: ADME, organism-based; conditions: in vivo
Mus musculus [14] = assay: Improvement in glucose tolerance in ICR mouse at 1 to 10 mg/kg, po administered as single dose 60 mins before glucose challenge and measured 30 to 60 mins post glucose challenge by OGTT method; assay type: functional, organism-based
Mus musculus [15] = species: Mus musculus; conditions: 1 to 10 mg/kg
Mus musculus [16] = species: Mus musculus; assay: animal or person; conditions: ICR, ip, 24 h, read-out: INH
Description: (§1) In-vivo inhibition of DPP4 in ICR mouse at 5 mg/kg, ip administered as single dose using Gly-Pro-AMC as substrate after 24 hrs post dose by continuous fluorometric assay

Mus musculus [17] = species: Mus musculus; assay: animal or person; conditions: po, 24 h, read-out: INH
Mus musculus [18] = species: Mus musculus; assay: animal or person; conditions: po, 24 h, read-out: INH; remark: listed apart in the source
Mus musculus [19] = species: Mus musculus; assay: animal or person; conditions: po, 24 h, read-out: INH; remark: listed apart in the source
Mus musculus [20] = assay: In-vivo inhibition of DPP4 in B6.V-Lep'ob/Lep'ob (ob/ob) mouse at 3 mg/kg, po administered as single dose using Gly-Pro-AMC as substrate after 24 hrs post dose by continuous fluorometric assay; assay type: functional, organism-based
Mus musculus [21] = species: Mus musculus; conditions: ICR, 5 mg/kg
Description: as §1

Row | SMILES | half-life [1] | AUCt [2] | AUC [3] | clearance [4] | MRT inf [5] | Vd [6] | half-life [7] | AUCt [8] | AUC [9] | Cmax [10] | MRT inf [11] | Tmax [12] | bioavailability [13] | other results
1 | COc1cc2ccc3c(c2cc1OC)C[C@H](N)[C@@H](c1cc(F)c(F)cc1F)O3 | 232 min | 3380.54 µg/L/h | 3415 µg/L/h | 5 mL/min/kg | 4.87 h | 1.66 L/kg | 183 min | 6052.89 µg/L/h | 6091.31 µg/L/h | 502 ng/mL | 6.33 h | 4.67 h | 89.2% | Activity (Mus musculus [14]): Dose-dependent effect; inhibition (Mus musculus [15]): Dose-dependent effect; inhibition in vivo at 5 mg/kg (Mus musculus [16]): ≤ 80%; inhibition in vivo at 1 mg/kg (Mus musculus [17]): > 80%; inhibition in vivo at 3 mg/kg (Mus musculus [18]): > 80%; inhibition in vivo at 10 mg/kg (Mus musculus [19]): > 80%
2 | COc1cc2c3c(ccc2cc1S(C)(=O)=O)O[C@H](c1cc(F)c(F)cc1F)[C@@H](N)C3 | 321 min | 24208.7 µg/L/h | 25460.37 µg/L/h | 0.667 mL/min/kg | 7.56 h | 0.63 L/kg | 410 min | 26527.6 µg/L/h | 26373.69 µg/L/h | 2320 ng/mL | 9.05 h | 4.67 h | 54.8% | 
3 | CS(=O)(=O)n1cc2c(n1)CN([C@H]1CO[C@H](c3cc(F)ccc3F)[C@@H](N)C1)C2 |  |  |  |  |  |  |  |  |  |  |  |  |  | inhibition (Mus musculus [20]): Active; inhibition (Mus musculus [21]): Active

— ChEMBL document CHEMBL3861975, “Discovery and Rational Design of Natural-Product-Derived 2-Phenyl-3,4-dihydro-2H-benzo[f]chromen-3-amine Analogs as Novel and Potent Dipeptidyl Peptidase 4 (DPP-4) Inhibitors for the Treatment of Type 2 Diabetes” (J Med Chem, 2016)
